Laboratory results from ChEMBL document CHEMBL3132797, “Synthesis and biological evaluation of substituted N-alkylphenyl-3,5-dinitrobenzamide analogs as anti-TB agents” (Medchemcomm, 2014).
≈ marks a conversion by molar mass, not a printed value.

Tests used:
[1] = system: Mycobacterium tuberculosis; assay: Antimycobacterial activity against Mycobacterium tuberculosis H37Rv ATCC 27294 by broth dilution method; format: functional
[2] = AUC (0 to t) in Balb mouse at 1 mg/kg, iv; format: ADME, organism-based; set-up: dose 1 mg/kg, route intravenous; details: plasma
[3] = Clearance in Balb mouse at 1 mg/kg, iv; format: ADME, organism-based; set-up: dose 1 mg/kg, route intravenous; details: in vivo
[4] = Elimination half life in Balb mouse at 1 mg/kg, iv; format: ADME, organism-based; set-up: dose 1 mg/kg, route intravenous; details: in vivo, read-out: beta t1/2 (converted)
[5] = Bioavailability in Balb mouse at 2.5 mg/kg, ip; format: ADME, organism-based; details: in vivo
[6] = Cmax in Balb mouse at 1 mg/kg, iv; format: ADME, organism-based; set-up: dose 1 mg/kg, route intravenous; details: in vivo
[7] = AUC (0 to t) in Balb mouse at 2.5 mg/kg, ip; format: ADME, organism-based; set-up: dose 2.5 mg/kg, route intraperitoneal; details: plasma
[8] = Elimination half life in Balb mouse at 2.5 mg/kg, ip; format: ADME, organism-based; set-up: dose 2.5 mg/kg, route intraperitoneal; details: in vivo, read-out: beta t1/2 (converted)
[9] = Tmax in Balb mouse at 2.5 mg/kg, ip; format: ADME, organism-based; set-up: dose 2.5 mg/kg, route intraperitoneal; details: in vivo
[10] = Cmax in Balb mouse at 2.5 mg/kg, ip; format: ADME, organism-based; set-up: dose 2.5 mg/kg, route intraperitoneal; details: in vivo
J774 [11] = assay: Cytotoxicity against mouse J774 cells at 20 ug/ml after 24 hrs by MTT assay; format: cell-based; details: j774, 24 h
J774 [12] = assay: Cytotoxicity against mouse J774 cells after 24 hrs by MTT assay; format: cell-based; details: J774, 24 h
[13] = Selectivity index, ratio of IC50 for mouse J774 cells to MIC for Mycobacterium tuberculosis H37Rv ATCC 27294; format: toxicity, cell-based; details: read-out: Selectivity Index
[14] = system: Mycobacterium tuberculosis; assay: Antimycobacterial activity against Mycobacterium tuberculosis H37Rv ATCC 27294 infected in mouse J774 cells assessed as intracellular killing after 48 hrs by colony formation assay; format: functional; details: H37Rv ATCC 27294, 48 h
[15] = system: Mycobacterium tuberculosis; assay: Bactericidal activity against Mycobacterium tuberculosis H37Rv ATCC 27294 by broth dilution method; format: functional

Molecule O=C(Nc1ccccc1F)c1cc([N+](=O)[O-])cc([N+](=O)[O-])c1 has an MIC [1] of 26.1 µM (≈ 7.96 µg/mL).
Molecule O=C(Nc1cc(Cl)cc(Cl)c1)c1cc([N+](=O)[O-])cc([N+](=O)[O-])c1 has an MIC [1] of 22.5 µM (≈ 8.02 µg/mL).
Work on N#Cc1ccccc1NC(=O)c1cc([N+](=O)[O-])cc([N+](=O)[O-])c1 yielded an MIC [1] of 6.4 µM (≈ 2 µg/mL).
With COc1ccc(CCNC(=O)c2cc([N+](=O)[O-])cc([N+](=O)[O-])c2)cc1 the MIC [1] was 1.45 µM (≈ 0.501 µg/mL).
For CCCCC(CC)CNC(=O)c1cc([N+](=O)[O-])cc([N+](=O)[O-])c1 (centres undefined), the MIC [1] was 0.19 µM (≈ 0.0614 µg/mL).
In the case of O=C(NC1CCCC1)c1cc([N+](=O)[O-])cc([N+](=O)[O-])c1, the MIC [1] is reported as 0.9 µM (≈ 0.251 µg/mL).
Molecule Cc1c([N+](=O)[O-])cc(C(=O)NCc2ccccc2)cc1[N+](=O)[O-] has an MIC [1] of 0.38 µM (≈ 0.12 µg/mL).
With Cc1ccc([C@@H](C)NC(=O)c2cc([N+](=O)[O-])c(C)c([N+](=O)[O-])c2)cc1 the AUC(0-t) [2] was 0.352 µM·h, the clearance [3] was 134 mL/min/kg and the half-life [4] was 55.8 min. It also gave a bioavailability [5] of 49%, a Cmax [6] of 673 nM and an AUC(0-t) [7] of 0.431 µM·h. It also gave a half-life [8] of 97.8 min, a Tmax [9] of 30 min and a Cmax [10] of 177 nM. For the same molecule, the Activity (J774 [11]) was “Non-toxic”, the IC50 (J774 [12]) was greater than 58.2 µM and the selectivity ratio [13] was greater than 666. The MIC [14] was 1.44 µM (≈ 0.494 µg/mL), the MBC [15] was 0.72 µM (≈ 0.247 µg/mL) and the MIC [1] was 0.09 µM (≈ 0.0309 µg/mL).
Molecule Cc1ccc([C@H](C)NC(=O)c2cc([N+](=O)[O-])c(C)c([N+](=O)[O-])c2)cc1 has an MIC [1] of 11.7 µM (≈ 4 µg/mL).
With Cc1c([N+](=O)[O-])cc(C(=O)N[C@H](C)c2ccc(F)cc2)cc1[N+](=O)[O-] the Activity (J774 [11]) was “Non-toxic”, the IC50 (J774 [12]) was greater than 57.6 µM and the selectivity ratio [13] was greater than 333. It also gave an MIC [14] of 0.71 µM (≈ 0.247 µg/mL), an MBC [15] of 0.17 µM (≈ 0.059 µg/mL) and an MIC [1] of 0.17 µM (≈ 0.059 µg/mL).
Cc1c([N+](=O)[O-])cc(C(=O)N[C@@H](C)c2ccc(F)cc2)cc1[N+](=O)[O-] gave an AUC(0-t) [2] of 0.374 µM·h, a clearance [3] of 111 mL/min/kg and a half-life [4] of 54 min. For the same molecule, the bioavailability [5] was 35%, the Cmax [6] was 711 nM and the AUC(0-t) [7] was 0.351 µM·h. For the same molecule, the half-life [8] was 64.8 min, the Tmax [9] was 15 min and the Cmax [10] was 216 nM. For the same molecule, the Activity (J774 [11]) was “Non-toxic”, the IC50 (J774 [12]) was greater than 57.6 µM and the selectivity ratio [13] was greater than 1330. The MIC [14] was less than 0.64 µM, the MBC [15] was less than 0.04 µM and the MIC [1] was 0.04 µM (≈ 0.0139 µg/mL).
Molecule Cc1c([N+](=O)[O-])cc(C(=O)N[C@H](C)c2ccc(Cl)cc2)cc1[N+](=O)[O-] has an MIC [1] of 1.38 µM (≈ 0.502 µg/mL).
Cc1c([N+](=O)[O-])cc(C(=O)N[C@@H](C)c2ccc(Cl)cc2)cc1[N+](=O)[O-] showed an MIC [1] greater than 5.51 µM.
COc1ccc([C@@H](C)NC(=O)c2cc([N+](=O)[O-])c(C)c([N+](=O)[O-])c2)cc1 showed an MIC [1] of 0.7 µM (≈ 0.252 µg/mL).
COc1ccc([C@H](C)NC(=O)c2cc([N+](=O)[O-])c(C)c([N+](=O)[O-])c2)cc1 showed an MIC [1] of 1.39 µM (≈ 0.499 µg/mL).
Work on Cc1c([N+](=O)[O-])cc(C(=O)N[C@H](C)c2ccccc2)cc1[N+](=O)[O-] yielded an MIC [1] of 0.36 µM (≈ 0.119 µg/mL).
With Cc1ccc([C@@H](C)NC(=O)c2cc([N+](=O)[O-])cc([N+](=O)[O-])c2)cc1 the Activity (J774 [11]) was “Non-toxic”, the IC50 (J774 [12]) was greater than 60.8 µM and the selectivity ratio [13] was greater than 1330. It also gave an MIC [14] of 0.8 µM (≈ 0.263 µg/mL), an MBC [15] of 0.2 µM (≈ 0.0659 µg/mL) and an MIC [1] of 0.05 µM (≈ 0.0165 µg/mL).
For Cc1ccc([C@H](C)NC(=O)c2cc([N+](=O)[O-])cc([N+](=O)[O-])c2)cc1, the MIC [1] was 0.76 µM (≈ 0.25 µg/mL).
With C[C@@H](NC(=O)c1cc([N+](=O)[O-])cc([N+](=O)[O-])c1)c1ccc(F)cc1 the MIC [1] was greater than 12 µM.
Molecule C[C@H](NC(=O)c1cc([N+](=O)[O-])cc([N+](=O)[O-])c1)c1ccc(F)cc1 has an MIC [1] of 3 µM (≈ 1 µg/mL).
With C[C@@H](NC(=O)c1cc([N+](=O)[O-])cc([N+](=O)[O-])c1)c1ccc(Cl)cc1 the MIC [1] was 0.17 µM (≈ 0.0595 µg/mL).
Work on C[C@H](NC(=O)c1cc([N+](=O)[O-])cc([N+](=O)[O-])c1)c1ccc(Cl)cc1 yielded an MIC [1] of 1.43 µM (≈ 0.5 µg/mL).
COc1ccc([C@@H](C)NC(=O)c2cc([N+](=O)[O-])cc([N+](=O)[O-])c2)cc1 gave an MIC [1] of 2.9 µM (≈ 1 µg/mL).
Molecule CC(C)c1ccc(NC(=O)c2cc([N+](=O)[O-])cc([N+](=O)[O-])c2)cc1 has an MIC [1] of 12.1 µM (≈ 4 µg/mL).
With Cc1ccc(C(C)NC(=O)c2cc([N+](=O)[O-])c(C)c([N+](=O)[O-])c2)cc1 (racemic) the Activity (J774 [11]) was “Non-toxic”, the IC50 (J774 [12]) was greater than 58.2 µM and the selectivity ratio [13] was greater than 1330. The MIC [14] was 0.72 µM (≈ 0.247 µg/mL), the MBC [15] was less than 0.04 µM and the MIC [1] was less than 0.17 µM.
With CO[C@H]1/C=C/O[C@@]2(C)Oc3c(C)c(O)c4c(O)c(c(/C=N/N5CCN(C)CC5)c(O)c4c3C2=O)NC(=O)/C(C)=C\C=C\[C@H](C)[C@H](O)[C@@H](C)[C@@H](O)[C@@H](C)[C@H](OC(C)=O)[C@@H]1C [RIFAMPIN] the MIC [1] was 0.07 µM (≈ 0.0576 µg/mL).
